# From patent publication US20040063710A1, “Ophthalmological preparations” (priority 2000, published 2004)
# Key:
# [1] = system: retinal degeneration caused by transient retinal ischemia; experiment: Inhibitory effect against retinal degeneration induced by transient retinal ischemia; format: in vivo, Wister male rats; details: 0.1 mg/kg into caudal vein just before and immediately after ocular hypertension treatment (130 mmHg, 50 minutes); 7 days after; versus control group
# Protocol: Wister male rats (body weight of about 200 g) was used. Each animal was subjected to sufficient warming treatment by using a thermal plate under anesthesia, and the head was fixed by using a stereotaxic apparatus. In order to induce transient retinal ischemia, IOP was maintained at 130 mmHg for 50 minutes by injecting intraocular irrigating solution into the anterior chamber via the cornea using an infusion tube and 30 G injection needle which were connected to a bottle held at 174 cm above the eyes (ocular hypertension treatment) according to the method of Akaike (Folia Pharmacologica Japonica, 111, pp.97-104(1998)). The ocular hypertension treatment was performed only on the right eye, and the left eye was left untreated. Just before and immediately after the ocular hypertension treatment, a physiological saline or a dose of 0.1 mg/kg of MCI0154 was injected to the caudal vein. Seven days after the ocular hypertension treatment, the animal was sacrificed under anesthesia, and eyeballs were isolated and a light microscopic specimens of horizontal sections of retina were prepared. Under a microscope, thickness of the retina (from inner plexiform layer to outer plexiform layer) was measured using a micrometer. […] 7 days after the ocular hypertension treatment. Data represent means±SEM (standard errors), and the number of rats for each group was 10. […]
# [2] = system: left atrium of guinea pig; experiment: Isolated left atrium of guinea pig; details: Dose 3 × 10^-5 g/ml
# Protocol: A left atrium was isolated from a male guinea pig with 200-300 g of body weight soon after striking on the back of its head. The mitral orifice was fixed to the bottom of an organ bath filled with 30 ml of Krebs-Henseleit solution maintained at 35° C. A gas mixture comprising 95% O2 and 5% CO2 was passed through the Krebs-Henseleit solution in the organ bath. Isometric tension was measured by connecting a left auricle of heart and a transducer by a yarn. A resting tension of 0.5 g was given to the atrium, which was then electrically driven with square pulses with duration of 1 msec and voltage of 1.5 times as much as threshold in the rate 2 Hz via dipolar platinum electrodes. After stabilizing the atrium for 30 minutes from its preparation, the compound dissolved in a solvent was added to the organ bath to measure its effect.
# retinal ganglion cells = experiment: Inhibitory effect against retinal ganglion cell death caused by glutamate; format: cell-based, Wister rat; details: 10^-7 M, 10^-6 M, 10^-5 M MCI-154; 250 μM glutamate, 48 hours culture; versus control group
# Protocol: In accordance with the method of Otori et al. (Investigative Ophthalmology & Visual Science, Vol. 39, No. 6, 1998), retinal ganglion cells were isolated from a 6 day-old Wister rat, and approximately 300 cells were plated on each cover glass having a diameter of 12 mm with poly-L-lysine and laminin coatings, that was inserted in each well of a 24-well culture plate, and then were cultured for 24 hours. The cells were divided into an untreated group, a control group, and medicament-treated group, each consisting of 2 wells. To the untreated and control groups, a basic culture medium was added, and to the medicament-treated groups, MCI-154 was added at various concentrations. After 4 hours of culture, 250 μM of glutamate was added to all of the groups except for the untreated group, followed by further culture for 48 hours. After the culture for 48 hours, cells were stained with 1 μM calcein acetoxymethyl ester, and the number of cells with neurites growing more than twice as long as the cell body diameter was counted as viable cells under a fluorescence microscope. Independent three experiments were performed in duplicate.
# Medicament-treated group: 10^−7 M, 10^−6 M, and 10^−5 M MCI-154
# Basic culture medium: Neurobasal (Gibco, Grand Island, N.Y.) including 1 mM glutamine, 10 μg/ml gentamycin, and 40 ng/ml […], CNTF, and b-FGF. […]
smiles,measurement,setting,value
"O=C1CCC(c2ccc(Nc3ccncc3)cc2)=NN1 [MCI-154, 6-[4-(4-pyridylamino)phenyl]-4,5-dihydro-3 (2H)pyridazinone]",inhibition of retinal degeneration caused by transient retinal ischemia (retinal thickness ratio),[1],significantly inhibits
same,"Contraction of left atrium of guinea pig, Increase (%)",[2],188%
same,inhibition of retinal ganglion cell death induced by glutamate (viable cells relative to untreated group),retinal ganglion cells,significantly inhibits
